Results on 29 molecules are retold here after ChEMBL document CHEMBL1153284, “N-(3-fluoro-4-(2-arylthieno[3,2-b]pyridin-7-yloxy)phenyl)-2-oxo-3-phenylimidazolidine-1-carboxamides: a novel series of dual c-Met/VEGFR2 receptor tyrosine kinase inhibitors” (Bioorg Med Chem Lett, 2009).

The target in data set [1] is T1, Hepatocyte growth factor receptor (Homo sapiens, UniProt P08581). As to the kind of experiment: biochemical.
Description: Inhibition of GST-fused recombinant c-Met catalytic domain expressed in baculovirus-infected Trichoplusia ni Hi5 cells after 30 mins by DELFIA assay
Data set [2] addresses Vascular endothelial growth factor receptor 2 (Homo sapiens, UniProt P35968). As to the kind of experiment: Inhibition of GST-fused recombinant VGFR2 catalytic domain expressed in baculovirus-infected Sf9 cells after 10 mins by DELFIA assay.
Data set [3] deals with T1, Hepatocyte growth factor receptor. The note with it: 293t.
Description: Inhibition of TPR-fused Met phosphorylation expressed in human 293T cells by ELISA
Data set [4] in a line: Half life in rat at 2.17 to 2.86 mg/kg, iv. In kind it is ADME, organism-based. Also on record: dose 2.17-2.86 mg/kg, route intravenous. The note with it: in vivo.
Data set [5] can be described thus: Bioavailability in rat at 4.28 to 4.98 mg/kg, po. In kind it is ADME, organism-based. The note with it: in vivo.
Data set [6] relates to HUVEC. As to the kind of experiment: Inhibition of tubule growth in HUVEC by angiogenesis assay. Format: functional, cell-based. The note with it: Homo sapiens.
Data set [7] in a line: Inhibition of VEGF-dependent ERK phosphorylation.
The target in data set [8] is Macrophage-stimulating protein receptor (Homo sapiens) (UniProt Q04912). As to the kind of experiment: Inhibition of Ron at 100 nM.
The test system of data set [9] is HUVEC. Briefly: Inhibition of VEGF-dependent proliferation in HUVEC. In kind it is functional, cell-based. The note with it: Homo sapiens.
The target in data set [10] is Receptor-type tyrosine-protein kinase FLT3 (Homo sapiens) (UniProt P36888). As to the kind of experiment: Inhibition of FLT3 at 100 nM.
The subject of the next data set is MDA-MB-231. As to the kind of experiment: Antiproliferative activity against c-Met-independent human MDA-MB-231 cells after 72 hrs by MTT assay. The note with it: MDA-MB-231, 72 h. In kind it is functional, cell-based.
In data set [11] the target is Vascular endothelial growth factor receptor 3 (Homo sapiens) (UniProt P35916). As to the kind of experiment: Inhibition of VEGFR3 at 100 nM.
In data set [12] the target is T2, Aurora kinase A (Homo sapiens) (UniProt O14965).
T2 sequence (whole entry): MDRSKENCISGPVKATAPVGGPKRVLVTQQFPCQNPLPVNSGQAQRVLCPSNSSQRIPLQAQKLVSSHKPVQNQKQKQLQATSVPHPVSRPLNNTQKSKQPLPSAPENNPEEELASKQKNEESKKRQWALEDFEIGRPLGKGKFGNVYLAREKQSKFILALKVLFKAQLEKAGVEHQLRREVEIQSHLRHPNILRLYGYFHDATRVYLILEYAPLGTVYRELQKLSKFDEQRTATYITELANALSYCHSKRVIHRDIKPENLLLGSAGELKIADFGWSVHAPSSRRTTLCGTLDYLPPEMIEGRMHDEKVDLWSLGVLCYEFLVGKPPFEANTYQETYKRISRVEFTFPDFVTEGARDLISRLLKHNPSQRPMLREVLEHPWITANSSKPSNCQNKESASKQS
Briefly: Inhibition of Aurora A at 100 nM.

For data set [13], the target named is Angiopoietin-1 receptor (Homo sapiens) (UniProt Q02763). Briefly: Inhibition of Tie2 at 100 nM.
The test system of the next data set is HCT-116. As to the kind of experiment: Antiproliferative activity against c-Met-independent human HCT116 cells after 72 hrs by MTT assay. In kind it is functional, cell-based. The note with it: HCT-116, 72 h. In general terms: Formazan colour is commonly taken as a measure of viable cells.
Data set [14] relates to HUVEC. Briefly: Inhibition of tubule formation in HUVEC assessed as tubule length at 100 nM by angiogenesis assay in presence of VEGF. In kind it is functional. The settings on record: Homo sapiens.
Data set [15] concerns the target Vascular endothelial growth factor receptor 1 (Homo sapiens) (UniProt P17948). As to the kind of experiment: Inhibition of VEGFR1 at 100 nM.
The subject of data set [16] is MKN-45. Briefly: Antiproliferative activity against human MKN45 cells expressing c-Met after 72 hrs by MTT assay. In kind it is functional, cell-based. The settings on record: MKN-45, 72 h.
The test system of data set [17] is MKN-45. As to the kind of experiment: Antitumor activity against human MKN45 cells xenografted in mouse assessed as regression of tumor growth at 40 mg/kg, po administered once daily for 12 days. Format: functional, organism-based. Set-up: dose 40 mg/kg. (In general: Xenograft models place foreign cells or tissue in a host animal.)
For the next data set, the system named is HOS-TE85. Briefly: Antiproliferative activity against human MNNG-HOS cells expressing TPR-fused Met after 72 hrs by MTT assay. The note with it: HOS-TE85, 72 h. Format: functional, cell-based.

A word on the IC50: it is the midpoint of a concentration-inhibition curve. The half-life is how long it takes for the measured level to halve. A high value points to slow loss. As usually defined, the bioavailability is the share of a dose that reaches the circulation, judged against a reference dose that is usually intravenous. Lower therefore signals poor availability. By inhibition is commonly meant the relative decrease from the control value, in per cent.

Active and inactive are the calls of the source. The calls are words filed in the database; no cut-off is given here.

On to `CN(C)CCn1cnc(-c2cc3nccc(Oc4ccc(NC(=O)N5CCN(c6ccccc6)C5=O)cc4F)c3s2)c1`, for which the IC50 in [1] stood at 34 nM; in data set [2] it was 14 nM; in data set [3], 60 nM.
As to `Cn1ccnc1-c1cc2nccc(Oc3ccc(NC(=O)N4CCN(c5ccccc5)C4=O)cc3F)c2s1`, the IC50 in data set [1] came out at 26 nM; in [2] it was 31 nM; in [3], 120 nM.
Taken in the same sequence, the figures for `O=C(Nc1ccc(Oc2ccnc3cc(-c4cn(CCCN5CCCC5)cn4)sc23)c(F)c1)N1CCN(c2ccccc2)C1=O` were 21 nM, 8 nM and 300 nM.
`CN1CCN(Cc2ccc(-c3cc4nccc(Oc5ccc(NC(=O)N6CCN(c7ccccc7)C6=O)cc5F)c4s3)cc2)CC1`: the IC50 in [1] was found to be 29 nM; in data set [2], 12 nM; in data set [3], 250 nM.
The corresponding values for `CCn1cnc(-c2cc3nccc(Oc4ccc(NC(=O)N5CCN(c6ccccc6)C5=O)cc4F)c3s2)c1` are 25 nM, 12 nM and 40 nM.
With `CC(C)n1cnc(-c2cc3nccc(Oc4ccc(NC(=O)C5CCN(c6ccccc6)C5=O)cc4F)c3s2)c1` (stereo not drawn), the 50% inhibitory concentration (IC50) worked out at 39 nM in data set [1], 16 nM in data set [2] and 210 nM in [3].
In the case of `CN1CC=C(c2cc3nccc(Oc4ccc(NC(=O)N5CCN(c6ccccc6)C5=O)cc4F)c3s2)CC1`, the figures for the IC50 in [1], in data set [2] and in [3] were 33 nM, 170 nM and 300 nM, respectively.
For `O=C(Nc1ccc(Oc2ccnc3cc(-c4ccc(CN5CCNCC5)cc4)sc23)c(F)c1)N1CCN(c2ccccc2)C1=O`, the values for the half-maximal inhibitory concentration (IC50) in data set [1], in [2] and in [3] were 22 nM, 11 nM and 420 nM, respectively.
For `Cn1cnc(-c2cc3nccc(Oc4ccc(NC(=O)NC(=O)Cc5ccccc5)cc4F)c3s2)c1`, the values for the IC50 in data set [1] and in [2] were 25 nM and 37 nM, respectively.
`Cn1cnc(-c2cc3nccc(Oc4ccc(NC(=O)N5CCN(c6ccccc6)C5=O)cc4F)c3s2)c1`: in data set [2], the half-maximal inhibitory concentration (IC50) was 8 nM. The same molecule showed a half-life in data set [4] of 2.3 h. Further, the bioavailability in data set [5] is 13%.
On to `CN(C(=O)C1(C(=O)Nc2ccc(Oc3ccnc4cc(-c5cn(C)cn5)sc34)c(F)c2)CC1)c1ccccc1`, for which the IC50 in data set [1] came to 1000 nM; in data set [2] it was 57 nM; in [3], 1440 nM.
Taken in the same sequence, the figures for `Cn1cnc(-c2cc3nccc(Oc4ccc(NC(=O)C5(C(=O)Nc6ccccc6)CC5)cc4F)c3s2)c1` were 28 nM, 9 nM and 60 nM.
As to `CCn1cnc(-c2cc3nccc(Oc4ccc(NC(=O)N5CCN(c6ccc(F)cc6)C5=O)cc4F)c3s2)c1`, the half-maximal inhibitory concentration (IC50) in the data set with HUVEC [6] stood at 6 nM; in [7], 1 nM; in [1], 27 nM; in data set [2], 7 nM; with HUVEC [9] it was 6 nM; in the data set on MDA-MB-231, 20000 nM. Also, the IC50 stood at 13000 nM in the data set with HCT-116, 10 nM in the data set on MKN-45 [16], 33 nM with HOS-TE85 and 50 nM in data set [3]. Moreover, the inhibition was 100% in [8]; 80% in data set [10]; 99% in data set [11]; 9% in data set [12]; 99% in data set [13]; 99% in data set [15]. This molecule gave a half-life in data set [4] of 6.3 h. In addition, the inhibition at 0.1 µM in the data set with HUVEC [14] is 98%. The same molecule yielded a bioavailability in [5] of 37%. The outcome with MKN-45 [17] was Active.
Take `Cn1cnc(-c2cc3nccc(Oc4ccc(NC(=O)N5CCN(c6ccccc6)C5=S)cc4F)c3s2)c1`: the IC50 in data set [1] is 2000 nM; in data set [2], 1800 nM; in data set [3], above 10000 nM.
Taken in the same sequence, the figures for `Cn1cnc(-c2cc3nccc(Oc4ccc(NC(=S)N5CCN(c6ccccc6)C5=O)cc4F)c3s2)c1` were 24 nM, 12 nM and 80 nM.
Take `Cn1cnc(-c2cc3nccc(Oc4ccc(NC(=O)C5CCN(c6ccccc6)C5=O)cc4F)c3s2)c1` (stereo not drawn): the values for the IC50 in data set [1], in [2] and in data set [3] were 35 nM, 39 nM and 370 nM, respectively. For the same molecule, in data set [4], the half-life was 1.1 h. The same molecule registered a bioavailability in data set [5] of 14%.
Consider `Cn1cnc(-c2cc3nccc(Oc4ccc(NC(=O)C5(C)CCN(c6ccccc6)C5=O)cc4F)c3s2)c1` (stereo not drawn), for which the half-inhibitory concentration (IC50) in data set [1] amounted to 67 nM; in data set [2], 230 nM; in data set [3], 1000 nM.
The corresponding values for `CCn1cnc(-c2cc3nccc(Oc4ccc(NC(=O)N5CCN(c6ccccc6F)C5=O)cc4F)c3s2)c1` are 21 nM, 3 nM and 100 nM.
Take `CC(C)n1cnc(-c2cc3nccc(Oc4ccc(NC(=O)C5CC(=O)N(c6ccccc6)C5)cc4F)c3s2)c1` (stereo not drawn): the values for the IC50 in data set [1] and in data set [2] were 300 nM and 800 nM, respectively.
With `CN(C(=O)CC(=O)Nc1ccc(Oc2ccnc3cc(-c4cn(C)cn4)sc23)c(F)c1)c1ccccc1`, the IC50 in data set [1] amounted to 43 nM; in data set [2], 10 nM; in data set [3] it was 160 nM.
The corresponding values for `CCn1cnc(-c2cc3nccc(Oc4ccc(NC(=O)N5CCN(c6ccccc6OC)C5=O)cc4F)c3s2)c1` are 26 nM, 14 nM and 60 nM.
Take `CC(=O)c1cccc(-c2cc3nccc(Oc4ccc(NC(=O)N5CCN(c6ccccc6)C5=O)cc4F)c3s2)c1`: the 50% inhibitory concentration (IC50) in data set [1] turned out to be 200 nM; in data set [2], 880 nM; in data set [3] it was 270 nM.
The corresponding values for `O=C(Nc1ccc(Oc2ccnc3cc(-c4cn(CCN5CCCC5)cn4)sc23)c(F)c1)N1CCN(c2ccccc2)C1=O` are 35 nM, 20 nM and 320 nM.
Taken in the same sequence, the figures for `CN1CCN(CCN(C)Cc2ccc(-c3cc4nccc(Oc5ccc(NC(=O)N6CCN(c7ccccc7)C6=O)cc5F)c4s3)cc2)CC1` were 28 nM, 3 nM and 830 nM.
Taken in the same sequence, the figures for `Cn1cnc(-c2cc3nccc(Oc4ccc(NC(=O)CC(=O)Nc5ccccc5)cc4F)c3s2)c1` were 28 nM, 15 nM and 310 nM.
Regarding `CNC(=O)N1CCN(Cc2ccc(-c3cc4nccc(Oc5ccc(NC(=O)N6CCN(c7ccccc7)C6=O)cc5F)c4s3)cc2)CC1`, the IC50 in data set [1] stood at 16 nM; in [2], 8 nM; in data set [3] it was 80 nM.
The corresponding values for `CCn1ccnc1-c1cc2nccc(Oc3ccc(NC(=O)N4CCN(c5ccccc5)C4=O)cc3F)c2s1` are 24 nM, 26 nM and 140 nM.
Regarding `Cn1cnc(-c2cc3nccc(Oc4ccc(NC(=S)NC(=O)Cc5ccccc5)cc4F)c3s2)c1`, in data set [2], the concentration for half-maximal inhibition (IC50) turned out to be 26 nM. This molecule also showed a half-life in [4] of 1.2 h.
As to `CN(C)[C@H]1CCN(C(=O)c2cc3nccc(Oc4ccc(NC(=O)N5CCN(c6ccccc6)C5=O)cc4F)c3s2)C1`, the IC50 turned out to be 42 nM in data set [1], 23 nM in data set [2] and 230 nM in [3].
